The subject of one series is MCF7. Description: Induction of apoptosis in human MCF7 cells assessed as live cells at 0.86 uM after 72 hrs by Annexin V-FITC/propidium iodide staining based flow cytometry (reference value: 95.05%). The format is functional.
The nature of series [1]: Selectivity index, ratio of CC50 for mouse TAMH cells to IC50 for human MCF7 cells. It counts as toxicity. As to conditions: TAMH cells (CC50) and MCF7 cells (IC50).
Series [2] is described as follows: Selectivity index, ratio of CC50 for human AC10 cells to IC50 for human MDA-MB-231 cells. The format is toxicity. As to conditions: AC10 cells (CC50) and MDA-MB-231 cells (IC50).
Series [3] has as its system PC-3. Put plainly: Induction of apoptosis in human PC3 cells assessed as live cells at 0.71 uM after 72 hrs by Annexin V-FITC/propidium iodide staining based flow cytometry (reference value: 96.36%). It counts as functional.
Series [4] relates to MDA-MB-231. Description: Induction of apoptosis in human MDA-MB-231 cells assessed as live cells at 0.9 uM after 72 hrs by Annexin V-FITC/propidium iodide staining based flow cytometry (reference value: 90.98%). The format is functional.
Series [5] concerns PC-3. Put plainly: Induction of apoptosis in human PC3 cells assessed as late apoptotic cells at 0.71 uM after 72 hrs by Annexin V-FITC/propidium iodide staining based flow cytometry (reference value: 1.01%). The format is functional.
Series [6] deals with Tyrosine-protein kinase JAK1 (Homo sapiens, UniProt P23458). Put plainly: Inhibition of human JAK1 using poly(Glu:Tyr)(4:1) as substrate preincubated for 20 mins followed by [gamma33P]ATP addition measured after 120 mins by ion exchange filter paper method.
Sequence of Tyrosine-protein kinase JAK1 (P23458 whole entry): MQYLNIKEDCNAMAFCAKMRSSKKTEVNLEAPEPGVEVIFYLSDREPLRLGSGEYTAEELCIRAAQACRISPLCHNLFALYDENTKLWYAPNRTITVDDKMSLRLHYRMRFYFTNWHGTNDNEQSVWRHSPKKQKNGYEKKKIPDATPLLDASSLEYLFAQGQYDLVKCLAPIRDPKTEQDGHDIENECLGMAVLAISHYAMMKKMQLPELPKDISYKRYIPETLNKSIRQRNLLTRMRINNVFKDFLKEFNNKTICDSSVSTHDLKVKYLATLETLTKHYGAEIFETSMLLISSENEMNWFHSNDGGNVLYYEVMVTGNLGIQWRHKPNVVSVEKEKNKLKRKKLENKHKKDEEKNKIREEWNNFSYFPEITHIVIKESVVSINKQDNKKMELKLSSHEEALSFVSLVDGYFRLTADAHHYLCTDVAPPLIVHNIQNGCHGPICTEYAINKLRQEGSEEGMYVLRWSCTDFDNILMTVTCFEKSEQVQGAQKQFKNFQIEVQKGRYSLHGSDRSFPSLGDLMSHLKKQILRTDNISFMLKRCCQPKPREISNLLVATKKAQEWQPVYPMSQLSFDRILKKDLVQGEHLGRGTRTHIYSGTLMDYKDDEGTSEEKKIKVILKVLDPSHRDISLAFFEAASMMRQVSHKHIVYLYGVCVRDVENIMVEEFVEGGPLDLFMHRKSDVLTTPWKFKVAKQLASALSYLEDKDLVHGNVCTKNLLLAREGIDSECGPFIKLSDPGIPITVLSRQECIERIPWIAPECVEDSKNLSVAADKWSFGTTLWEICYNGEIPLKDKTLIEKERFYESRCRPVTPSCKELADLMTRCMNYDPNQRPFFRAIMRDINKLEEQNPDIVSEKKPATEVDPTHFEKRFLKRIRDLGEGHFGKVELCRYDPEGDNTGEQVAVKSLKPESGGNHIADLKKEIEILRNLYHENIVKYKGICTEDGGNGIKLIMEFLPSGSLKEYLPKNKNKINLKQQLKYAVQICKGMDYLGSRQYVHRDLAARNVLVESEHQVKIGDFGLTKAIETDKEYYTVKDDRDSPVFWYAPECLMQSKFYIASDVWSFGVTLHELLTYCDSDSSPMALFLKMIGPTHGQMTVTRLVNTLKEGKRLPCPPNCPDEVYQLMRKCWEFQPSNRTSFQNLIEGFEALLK
The nature of series [7]: Selectivity index, ratio of CC50 for human AC10 cells to IC50 for human HCT116 cells. The format is toxicity. The following applies: AC10 cells (CC50) and HCT116 cells (IC50).
The next series addresses Histone deacetylase 1 (Homo sapiens, UniProt Q13547). Description: Inhibition of HDAC1 (unknown origin) using Arg-His-Lys-Lys(Ac) as substrate preincubated with enzyme followed by substrate addition for 2 hrs and measured for 1.5 hrs at 15 mins time interval by fluorescence assay.
Series [8] has as its target Non-receptor tyrosine-protein kinase TYK2 (Homo sapiens, UniProt P29597). Put plainly: Inhibition of human TYK2 using KKSRGDYMTMQIG as substrate preincubated for 20 mins followed by [gamma33P]ATP addition measured after 120 mins by ion exchange filter paper method.
Series [9] can be described thus: Selectivity index, ratio of CC50 for human AC10 cells to IC50 for human MCF7 cells. It counts as toxicity. The following applies: AC10 cells (CC50) and MCF7 cells (IC50).
In series [10] the test system is MDA-MB-231. Description: Induction of apoptosis in human MDA-MB-231 cells assessed as early apoptotic cells at 0.9 uM after 72 hrs by Annexin V-FITC/propidium iodide staining based flow cytometry (reference value: 1.45%). The format is functional.
A short description of series [11]: Selectivity index, ratio of CC50 for mouse TAMH cells to IC50 for human PC3 cells. The format is toxicity. As to conditions: TAMH cells (CC50) and PC3 cells (IC50).
Series [12] addresses T1, Tyrosine-protein kinase JAK3 (Homo sapiens, UniProt P52333).
T1 sequence (P52333 whole entry): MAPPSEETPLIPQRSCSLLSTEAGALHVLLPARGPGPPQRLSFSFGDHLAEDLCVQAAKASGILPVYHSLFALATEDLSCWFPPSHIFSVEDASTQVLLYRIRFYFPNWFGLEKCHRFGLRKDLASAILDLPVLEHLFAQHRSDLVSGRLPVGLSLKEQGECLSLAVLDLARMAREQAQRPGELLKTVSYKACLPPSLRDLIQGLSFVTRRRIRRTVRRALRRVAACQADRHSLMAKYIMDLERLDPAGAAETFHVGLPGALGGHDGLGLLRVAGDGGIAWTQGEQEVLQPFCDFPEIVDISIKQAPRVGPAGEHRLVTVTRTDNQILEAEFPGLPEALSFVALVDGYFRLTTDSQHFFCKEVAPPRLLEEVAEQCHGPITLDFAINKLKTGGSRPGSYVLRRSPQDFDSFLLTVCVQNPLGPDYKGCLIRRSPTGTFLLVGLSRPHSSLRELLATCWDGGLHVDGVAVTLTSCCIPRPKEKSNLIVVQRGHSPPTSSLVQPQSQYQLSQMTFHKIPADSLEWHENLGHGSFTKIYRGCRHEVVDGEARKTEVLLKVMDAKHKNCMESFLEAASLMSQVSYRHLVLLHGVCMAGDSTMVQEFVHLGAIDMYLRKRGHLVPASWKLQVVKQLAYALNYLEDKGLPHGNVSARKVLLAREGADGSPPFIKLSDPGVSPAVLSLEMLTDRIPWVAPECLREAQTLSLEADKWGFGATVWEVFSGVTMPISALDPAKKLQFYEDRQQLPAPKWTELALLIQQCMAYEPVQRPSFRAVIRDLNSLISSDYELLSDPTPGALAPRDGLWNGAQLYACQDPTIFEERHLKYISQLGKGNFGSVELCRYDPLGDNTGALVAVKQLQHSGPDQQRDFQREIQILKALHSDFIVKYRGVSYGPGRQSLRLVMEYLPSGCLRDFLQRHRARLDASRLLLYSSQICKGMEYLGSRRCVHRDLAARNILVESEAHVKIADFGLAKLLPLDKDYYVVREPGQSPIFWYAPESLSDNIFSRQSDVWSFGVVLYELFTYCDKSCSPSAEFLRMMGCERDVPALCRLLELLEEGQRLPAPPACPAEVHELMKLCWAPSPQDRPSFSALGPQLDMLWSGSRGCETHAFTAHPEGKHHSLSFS
Description: Inhibition of human JAK3 using poly(Glu:Tyr)(4:1) as substrate preincubated for 20 mins followed by [gamma33P]ATP addition measured after 120 mins by ion exchange filter paper method.

A short description of series [13]: Antiproliferative activity against human AC10 cells after 72 hrs by MTT assay. The format is cell-based.

Sequence of Histone deacetylase 1 (Q13547 whole entry): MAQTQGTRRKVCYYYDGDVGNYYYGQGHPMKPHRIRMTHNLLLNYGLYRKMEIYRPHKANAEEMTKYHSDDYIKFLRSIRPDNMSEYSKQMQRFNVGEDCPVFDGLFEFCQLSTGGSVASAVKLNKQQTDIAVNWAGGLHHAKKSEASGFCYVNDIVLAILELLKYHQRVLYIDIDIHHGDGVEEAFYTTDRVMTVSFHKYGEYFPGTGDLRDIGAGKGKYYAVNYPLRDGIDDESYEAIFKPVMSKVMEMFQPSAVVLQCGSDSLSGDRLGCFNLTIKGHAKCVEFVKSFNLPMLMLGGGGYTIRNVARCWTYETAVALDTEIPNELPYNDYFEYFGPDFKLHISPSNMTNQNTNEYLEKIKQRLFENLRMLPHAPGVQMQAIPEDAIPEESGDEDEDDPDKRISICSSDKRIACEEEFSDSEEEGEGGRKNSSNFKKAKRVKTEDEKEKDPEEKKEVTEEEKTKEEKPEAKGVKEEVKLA
Sequence of Non-receptor tyrosine-protein kinase TYK2 (P29597 whole entry): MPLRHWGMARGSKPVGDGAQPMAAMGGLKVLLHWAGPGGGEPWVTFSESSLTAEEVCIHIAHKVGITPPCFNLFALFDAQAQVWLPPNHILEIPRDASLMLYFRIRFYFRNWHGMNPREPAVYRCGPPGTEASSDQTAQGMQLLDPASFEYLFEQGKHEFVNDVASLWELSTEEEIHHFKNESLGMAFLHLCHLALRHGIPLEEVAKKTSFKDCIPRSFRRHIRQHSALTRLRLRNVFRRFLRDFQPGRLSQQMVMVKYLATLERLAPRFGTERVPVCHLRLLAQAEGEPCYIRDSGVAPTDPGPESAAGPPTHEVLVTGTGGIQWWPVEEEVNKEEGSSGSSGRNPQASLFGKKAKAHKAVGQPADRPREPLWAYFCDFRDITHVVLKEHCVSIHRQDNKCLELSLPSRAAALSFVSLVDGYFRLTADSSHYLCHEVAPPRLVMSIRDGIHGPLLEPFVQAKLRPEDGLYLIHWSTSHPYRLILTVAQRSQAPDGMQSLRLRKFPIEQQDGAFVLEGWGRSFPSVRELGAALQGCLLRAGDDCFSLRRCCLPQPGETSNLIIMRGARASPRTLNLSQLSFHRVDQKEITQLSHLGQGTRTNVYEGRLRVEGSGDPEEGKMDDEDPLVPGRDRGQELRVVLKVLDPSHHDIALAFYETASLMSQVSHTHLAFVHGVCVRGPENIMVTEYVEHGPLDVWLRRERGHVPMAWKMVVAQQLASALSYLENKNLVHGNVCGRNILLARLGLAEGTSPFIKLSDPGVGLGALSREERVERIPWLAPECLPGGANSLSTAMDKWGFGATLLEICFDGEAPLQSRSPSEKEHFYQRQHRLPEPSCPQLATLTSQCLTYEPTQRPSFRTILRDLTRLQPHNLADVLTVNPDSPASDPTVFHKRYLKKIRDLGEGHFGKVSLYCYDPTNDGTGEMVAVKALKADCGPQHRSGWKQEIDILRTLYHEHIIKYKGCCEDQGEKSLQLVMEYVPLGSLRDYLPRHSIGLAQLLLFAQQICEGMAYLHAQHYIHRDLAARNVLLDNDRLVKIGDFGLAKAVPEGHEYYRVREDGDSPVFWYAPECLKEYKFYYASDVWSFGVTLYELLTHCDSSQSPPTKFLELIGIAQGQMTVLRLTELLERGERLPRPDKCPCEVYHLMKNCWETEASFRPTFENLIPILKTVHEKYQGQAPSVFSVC

For `O=C(CCCCCCC(=O)Nc1ccc(-c2ccnc(Nc3ccc(N4CCOCC4)cc3)n2)cc1)NO`, the Activity worked out at 37.54% with MCF7; 39.88% in the series on PC-3 [3]; 10.29% in the series with MDA-MB-231 [4]; 13.06% with PC-3 [5]; 43.86% in the series on MDA-MB-231 [10]. In addition, the selectivity ratio in series [1] stood at 9.13; in series [2], 4.02; in [7] it was 3.79; in series [9], 5.69; in [11], 9.98. Besides, the IC50 in series [6] amounted to 52.1 nM; against Histone deacetylase 1, 56 nM; in [8], 79.4 nM; in series [12] it was 80.1 nM. The molecule also gave a CC50 at 72 h in series [13] of 3980 nM.

The values are drawn from ChEMBL document CHEMBL4265943, “Design and synthesis of potent dual inhibitors of JAK2 and HDAC based on fusing the pharmacophores of XL019 and vorinostat” (Eur J Med Chem, 2018).
